Data reported in PubChem BioAssay AID330 (DTP/NCI, 2004).
Where “and” joins values, the source holds several entries; their conditions need not be identical. Identical values can stand only once. Toxic doses and inconclusive results are not listed. How the source made its calls: active means survival T/C of 150% or more; inactive means T/C below 125% in these data.

Tested on: P388 leukemia ip, CD2F1 mice, survival T/C
Test: NCI In Vivo Anticancer Drug Screen. Data for tumor model P388 Leukemia (intraperitoneal) in CD2F1 (CDF1) mice
Settings: endpoint: median survival time, higher = longer survival
Procedure, shortened: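 Mice carrying the transplanted tumor received test compound or vehicle. Survival was recorded in each group, and the value is the treated-group measurement divided by that of the vehicle-treated control group.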

[1] = dose: 50.0 mg/kg/injection, schedule: Q01DX005 (ip), vehicle: saline with Tween-80
[2] = dose: 100.0 mg/kg/injection, schedule: Q01DX005 (ip), vehicle: saline with Tween-80
[3] = dose: 0.5 mg/kg/injection, schedule: Q01DX009 (ip), vehicle: saline
[4] = dose: 1.0 mg/kg/injection, schedule: Q01DX009 (ip), vehicle: saline
[5] = dose: 2.0 mg/kg/injection, schedule: Q01DX009 (ip), vehicle: saline
[6] = dose: 25.0 mg/kg/injection, schedule: Q01DX005 (ip), vehicle: Klucel (hydroxypropylcellulose) (HPC)
[7] = dose: 50.0 mg/kg/injection, schedule: Q01DX005 (ip), vehicle: Klucel (hydroxypropylcellulose) (HPC)
[8] = dose: 100.0 mg/kg/injection, schedule: Q01DX005 (ip), vehicle: Klucel (hydroxypropylcellulose) (HPC)
[9] = dose: 200.0 mg/kg/injection, schedule: Q01DX005 (ip), vehicle: Klucel (hydroxypropylcellulose) (HPC)
[10] = dose: 50.0 mg/kg/injection, schedule: Q01DX009 (ip), vehicle: saline with Tween-80
[11] = dose: 100.0 mg/kg/injection, schedule: Q01DX009 (ip), vehicle: saline with Tween-80
[12] = dose: 200.0 mg/kg/injection, schedule: Q01DX009 (ip), vehicle: saline with Tween-80
[13] = dose: 200.0 mg/kg/injection, schedule: Q01DX005 (ip), vehicle: saline with Tween-80
[14] = dose: 50.0 mg/kg/injection, schedule: Q01DX009 (ip), vehicle: Klucel (hydroxypropylcellulose) (HPC)
[15] = dose: 100.0 mg/kg/injection, schedule: Q01DX009 (ip), vehicle: Klucel (hydroxypropylcellulose) (HPC)
[16] = dose: 200.0 mg/kg/injection, schedule: Q01DX009 (ip), vehicle: Klucel (hydroxypropylcellulose) (HPC)

Measured: T/C

C=C(C)C12CC(C)C34OC(CCCCCCCCC)(OC1C3C1OC1(CO)C(O)C1(O)C(=O)C(C)=CC14)O2 (configuration not stated)
inactive: dose: 3.0 micrograms/kg/injection, schedule: Q01DX009 (ip), vehicle: saline + alcohol 107 % of control | dose: 5.0 micrograms/kg/injection, schedule: Q01DX009 (ip), vehicle: saline + alcohol 109 % of control | dose: 10.0 micrograms/kg/injection, schedule: Q01DX009 (ip), vehicle: saline + alcohol 105 % of control | dose: 20.0 micrograms/kg/injection, schedule: Q01DX009 (ip), vehicle: saline + alcohol 109 % of control | dose: 40.0 micrograms/kg/injection, schedule: Q01DX009 (ip), vehicle: saline + alcohol 116 % of control

C=C1CC1CC(N)C(=O)O (configuration not stated)
inactive: dose: 1.25 mg/kg/injection, schedule: Q01DX009 (ip), vehicle: saline 108 % of control | dose: 2.5 mg/kg/injection, schedule: Q01DX009 (ip), vehicle: saline 96 % of control | dose: 5.0 mg/kg/injection, schedule: Q01DX009 (ip), vehicle: saline 100 % of control

C(=Nc1ccncc1)c1c[nH]c2ccccc12
inactive: dose: 3.12 mg/kg/injection, schedule: Q01DX001 (ip), vehicle: Klucel (hydroxypropylcellulose) (HPC) 104 % of control | dose: 6.25 mg/kg/injection, schedule: Q01DX001 (ip), vehicle: Klucel (hydroxypropylcellulose) (HPC) 98 % of control | dose: 12.5 mg/kg/injection, schedule: Q01DX001 (ip), vehicle: Klucel (hydroxypropylcellulose) (HPC) 101 % of control and 104 % of control

O=S1(=O)CC(Cl)(Cl)C1
inactive: [1] 102 % of control | [2] 109 % of control

C=CC12COC(=O)C(=C)C1C(O)C1C(=C)C(=O)OC1C2 (configuration not stated)
inactive: [3] 97 % of control | [4] 97 % of control | [5] 106 % of control | dose: 4.0 mg/kg/injection, schedule: Q01DX009 (ip), vehicle: saline 110 % of control

CCOC(=O)C1=CNc2c(C#N)cnn2C1(C(=O)OCC)c1c[nH]c2ccccc12 (configuration not stated)
inactive: [6] 109 % of control | [7] 102 % of control | [8] 98 % of control | [9] 109 % of control

CN=C(N)N/N=C(\C)c1ccc2c(c1)-c1ccc(/C(C)=N/NC(N)=NC)c3cccc-2c13
inactive: dose: 3.12 mg/kg/injection, schedule: Q04DX002 (ip), vehicle: saline with Tween-80 104 % of control | dose: 6.25 mg/kg/injection, schedule: Q04DX002 (ip), vehicle: saline with Tween-80 99 % of control | dose: 12.5 mg/kg/injection, schedule: Q04DX002 (ip), vehicle: saline with Tween-80 100 % of control

CN1C(=O)C/C(=N/Nc2ccccc2)NC1=O
inactive: [10] 95 % of control | [11] 100 % of control | [12] 92 % of control

CCCCCCCCCCC[N+](C)([O-])CCCCCC[N+](C)([O-])CCCCCCCCCCC (configuration not stated)
inactive: dose: 12.5 mg/kg/injection, schedule: Q01DX009 (ip), vehicle: saline with Tween-80 100 % of control | dose: 25.0 mg/kg/injection, schedule: Q01DX009 (ip), vehicle: saline with Tween-80 100 % of control | [10] 102 % of control and 96 % of control

O=C1c2ccccc2C(=O)N1CN1C(=O)c2ccccc2S1(=O)=O
inactive: [7] 93 % of control | [8] 98 % of control

Cc1nc(C)c(Cl)c(Cc2ncnc3ccccc23)n1
inactive: dose: 25.0 mg/kg/injection, schedule: Q01DX005 (ip), vehicle: saline with Tween-80 106 % of control | [1] 96 % of control | [2] 102 % of control

O=C(OC1(c2nccc3ccccc23)CCN(CCc2ccccc2)CC1)c1ccccc1
inactive: dose: 6.25 mg/kg/injection, schedule: Q01DX009 (ip), vehicle: saline 105 % of control | dose: 12.5 mg/kg/injection, schedule: Q01DX009 (ip), vehicle: saline 99 % of control | dose: 25.0 mg/kg/injection, schedule: Q01DX009 (ip), vehicle: saline 97 % of control

c1ccc(CNc2ncccn2)nc1
inactive: [1] 100 % of control | [2] 96 % of control | [13] 100 % of control

CC1CN(CC#CCN2C(=O)CCC2=O)CC(C)O1 (configuration not stated)
inactive: [6] 103 % of control | [7] 107 % of control | [8] 103 % of control | [9] 107 % of control

CSC(=S)/N=c1\ccccn1C
inactive: dose: 25.0 mg/kg/injection, schedule: Q04DX002 (ip), vehicle: saline with Tween-80 102 % of control | dose: 50.0 mg/kg/injection, schedule: Q04DX002 (ip), vehicle: saline with Tween-80 99 % of control | dose: 100.0 mg/kg/injection, schedule: Q04DX002 (ip), vehicle: saline with Tween-80 102 % of control

CCC12Nc3ccc([N+](=O)[O-])cc3C(CC)(C1=O)C(c1ccccc1)=C2c1ccccc1 (configuration not stated)
inactive: [14] 113 % of control | [15] 110 % of control | [16] 112 % of control

Cc1ccc(SSc2nnnn2C)cc1
inactive: [14] 100 % of control | [15] 88 % of control

c1cc[c]([Sn]([S]C23CC4CC(CC(C4)C2)C3)([c]2ccccc2)[c]2ccccc2)cc1
inactive: dose: 100.0 mg/kg/injection, schedule: Q04DX003 (ip), vehicle: suspension in saline 94 % of control | dose: 200.0 mg/kg/injection, schedule: Q04DX003 (ip), vehicle: suspension in saline 98 % of control | dose: 400.0 mg/kg/injection, schedule: Q04DX003 (ip), vehicle: suspension in saline 93 % of control

CCC1(/C=N/NC(N)=O)NC(=O)NC1=O (configuration not stated)
inactive: [1] 93 % of control | [2] 96 % of control | [13] 88 % of control

CCN(CC)CCNc1ccc(COC(N)=O)c2sc3ccccc3c(=O)c12
inactive: dose: 100.0 mg/kg/injection, schedule: Q04DX003 (ip), vehicle: saline 117 % of control | dose: 200.0 mg/kg/injection, schedule: Q04DX003 (ip), vehicle: saline 122 % of control

CCCCCCCCCCCCCCCC(=O)OC(=O)CCCCCCCCCCCCCCC
inactive: [10] 100 % of control | [11] 95 % of control | [12] 94 % of control

CC(C)C(Br)C(=O)NCC(=O)O (configuration not stated)
inactive: dose: 100.0 mg/kg/injection, schedule: Q04DX003 (ip), vehicle: saline with Tween-80 100 % of control | dose: 200.0 mg/kg/injection, schedule: Q04DX003 (ip), vehicle: saline with Tween-80 95 % of control | dose: 400.0 mg/kg/injection, schedule: Q04DX003 (ip), vehicle: saline with Tween-80 100 % of control

Cc1c(C)c2ccccc2[nH]c1=O
inactive: [14] 101 % of control | [15] 104 % of control | [16] 113 % of control | dose: 400.0 mg/kg/injection, schedule: Q01DX009 (ip), vehicle: Klucel (hydroxypropylcellulose) (HPC) 100 % of control

CC(=O)OC12CCCCC(CCCC1)O2
inactive: dose: 100.0 mg/kg/injection, schedule: Q04DX003 (ip), vehicle: Klucel (hydroxypropylcellulose) (HPC) 100 % of control | dose: 200.0 mg/kg/injection, schedule: Q04DX003 (ip), vehicle: Klucel (hydroxypropylcellulose) (HPC) 99 % of control | dose: 400.0 mg/kg/injection, schedule: Q04DX003 (ip), vehicle: Klucel (hydroxypropylcellulose) (HPC) 100 % of control

CCOC(=O)c1cnc(NCCCCCCNc2ncc(C(=O)OCC)c(=O)[nH]2)[nH]c1=O
inactive: [7] 97 % of control | [8] 91 % of control

CC(=O)OC1C2OC3C=C(C)CCC3(CO)C(C)(C1OC(C)=O)C21CO1 (configuration not stated)
inactive: [3] 108 % of control | [4] 100 % of control | [5] 106 % of control

CCOP(=S)(OCC)OC(=O)C(C)SSC (configuration not stated) (tested in a mixture with another compound)
inactive: dose: 60.0 mg/kg/injection, schedule: Q01DX005 (ip), vehicle: saline with Tween-80 101 % of control | dose: 120.0 mg/kg/injection, schedule: Q01DX005 (ip), vehicle: saline with Tween-80 104 % of control

COc1cc(O)c2c(O)c3c(c4c2c1[C@]1(C4)C(C)=CCCC1(C)C)[C@H](O)[C@@]1(O)CC(=O)C(C(N)=O)=C(O)[C@@]1(O)C3=O
inactive: dose: 6.25 mg/kg/injection, schedule: Q04DX003 (ip), vehicle: saline with Tween-80 100 % of control | dose: 12.0 mg/kg/injection, schedule: Q01DX009 (ip), vehicle: saline with Tween-80 112 % of control | dose: 12.5 mg/kg/injection, schedule: Q04DX003 (ip), vehicle: saline with Tween-80 100 % of control | dose: 25.0 mg/kg/injection, schedule: Q01DX009 (ip), vehicle: Klucel (hydroxypropylcellulose) (HPC) 120 % of control and 121 % of control | dose: 25.0 mg/kg/injection, schedule: Q04DX003 (ip), vehicle: saline with Tween-80 113 % of control | [14] 111 % of control
